Each block holds one compound with its values, some of them ahead of it.
Experiments:
Soliva anthemifolia = experiment: Activity test of compositions, early post-emergence foliage spray (F-EP); type: in vivo; details: A alone 60 g a.i./ha, fresh weight inhibition rate 21 days after treatment
Procedure: (§1) The required active ingredient B was purchased from a reagent company or synthesized by a known method. The technical materials were all dissolved with acetone solvents and diluted with an aqueous solution of 0.1% Tween 80 emulsifier, which were to be used immediately after dilution.
(§2) Weeds were cultivated by a pot culture method. […] Weed seeds with plump and uniform grains were selected, soaked in lukewarm water at 25° C. for 6 hours, and accelerated to germinate in a 28° C. biochemical incubator (in darkness). The weed seeds that had just germinated were evenly placed on the surface of the soil and then covered with 0.5-1 cm soil according to the sizes of seeds.
(§3) The culture was carried out in a controllable sunlight greenhouse at 20 to 30° C., in natural light, and with relative humidity of 57% to 72%.
(§4) Each treatment was repeated 4 times. Four pots with 20 weed seeds sowed per pot were treated each time.
(§5) The agents were used once in total in the experiment. In the stage of 1-2 leaves, the weeds were thinned out to maintain 10 strains per treatment for later use.
(§6) The well-cultured test materials were evenly placed on a platform with an area of 0.5 m^2, and foliage spraying was carried out by the 3WP-2000-type walking spray tower at a dosage of 450 kg/ha and a spray pressure of 0.3 MPa. After all the solution was sprayed, the air valve was closed, and 30 seconds later, the door of the spray tower was opened, and the nutritional bowl was taken out. Then the air valve was opened, and the spray tube was cleaned by spraying 50 ml of water. The test materials were transferred to and routinely cultured in a greenhouse after the treatment.
(§7) A method for investigating absolute numbers was employed. Whole seedlings of survival weeds were cut off with a blade along the soil surface, and the fresh weight of the weeds was weighed using an analytical balance. For dead weeds, the fresh weight thereof was zero.
(§8) The investigation was performed 21 days after the treatment for once in total.
(§9) The theoretical fresh weight inhibition rate of a mixed combination of each treatment was calculated by the Gowing method (E0=X+Y−X*Y/100). […] An optimal ratio was determined according to the actual control effects, characteristics of herbicides, and balance of the formulation. In the formula, X represents the fresh weight inhibition rate of the active ingredient A in a dosage of P; Y represents the fresh weight inhibition rate of the active ingredient B in a dosage of Q. The statistical results are shown in Table 4.

Echinochloa glabrescens [1] = experiment: as above; type: in vivo; details: A alone 30 g a.i./ha, fresh weight inhibition rate 21 days after treatment
Procedure: as §1, §2, §3, §4, §5, §6, §7, §8, §9

Cyperus glomeratus [2] = experiment: as above; type: in vivo; details: A alone 30 g a.i./ha, fresh weight inhibition rate 21 days after treatment
Procedure: as §1, §2, §3, §4, §5, §6, §7, §8, §9

[3] = tested on: Echinochloa crus-galli var. austrojaponensis; experiment: as above; type: in vivo; details: fresh weight inhibition rate 21 days after treatment
Procedure: as §1, §2, §3, §4, §5, §6, §7, §8, §9

Echinochloa crusgalli = experiment: Weed control effect evaluation in rice fields; type: in vivo; details: activity level, 0.5-leaf stage, flooded pot, 14th day, weed resistant to pyrazosulfuron
Source text: (§10) After rice field soil was loaded into a 1/1,000,000 ha pot, the seeds of Echinochloa crusgalli, Echinochloa phyllopogon, Monochoria vaginalis, Leptochloa chinensis, and Ludwigia prostrata were sowed and gently covered with soil, then left to stand in a greenhouse with water storage of 0.5-1 cm deep. The tuber of Sagittaria trifolia was planted in the next day or 2 days later. The water storage was kept at a depth of 3-4 cm thereafter. When the Echinochloa crusgalli, Echinochloa phyllopogon, and Leptochloa chinensis reached their 0.5-leaf stages and the Sagittaria trifolia reached the time point of the primary leaf stage, WP or SC aqueous dilutions of the compounds of the present invention formulated according to common formulation methods were homogeneously dripped to the specified effective amount using pipettes for treatment.

Echinochloa phyllopogon = experiment: Weed control effect evaluation in rice fields; type: in vivo; details: activity level, 0.5-leaf stage, flooded pot, 14th day, weed resistant to pyrazosulfuron
Source text: as §10

Echinochloa glabrescens [4] = experiment: Activity test of compositions, soil sealing treatment (S); type: in vivo; details: A alone 30 g a.i./ha, fresh weight inhibition rate 21 days after treatment
Procedure: as §1
(§11) Weeds were cultivated in a controllable sunlight greenhouse at 20 to 30° C., in natural light, and with relative humidity of 57% to 72%. […] The test soil was quantitatively filled to 3/4 of the pot, and then watered from the bottom of the pot to completely wet the soil to saturation. The test weed seeds were accelerated to just germinate, and then evenly and quantitatively sowed on the soil surface, covered with 0.5-1 cm soil according to the sizes of the seeds, and ready for use 72 hours after sowing.
as §4
as §6, with “well-sowed” for “well-cultured”, “water.” for “water. The test materials were transferred to and routinely cultured in a greenhouse after the treatment.”
as §7, §8, §9

Oxybasis glauca = experiment: as above; type: in vivo; details: A alone 60 g a.i./ha, fresh weight inhibition rate 21 days after treatment
Procedure: as §1, §11, §4
as §6, with “well-sowed” for “well-cultured”, “water.” for “water. The test materials were transferred to and routinely cultured in a greenhouse after the treatment.”
as §7, §8, §9

Cyperus glomeratus [5] = experiment: as above; type: in vivo; details: A alone 30 g a.i./ha, fresh weight inhibition rate 21 days after treatment
Procedure: as §1, §11, §4
as §6, with “well-sowed” for “well-cultured”, “water.” for “water. The test materials were transferred to and routinely cultured in a greenhouse after the treatment.”
as §7, §8, §9

Arivela viscosa = experiment: as above; type: in vivo; details: A alone 60 g a.i./ha, fresh weight inhibition rate 21 days after treatment
Procedure: as §1, §11, §4
as §6, with “well-sowed” for “well-cultured”, “water.” for “water. The test materials were transferred to and routinely cultured in a greenhouse after the treatment.”
as §7, §8, §9

Rice = details: japonica, in vivo, 7 days
Procedure: In addition, after being loaded into the 1/1,000,000 ha pot, the rice field soil was leveled to keep the water storage at a depth of 2-3 cm. The rice (japonica rice) at 3-leaf stage was transplanted at a transplanting depth of 2-3 cm the next day. The compounds of the present invention were treated in the same manner as above on the 3rd day after the transplantation.
The effects were evaluated according to the above-mentioned activity level criteria.

Digitaria ischaemum = experiment: Activity test of compositions, soil sealing treatment (S); type: in vivo; details: A alone 60 g a.i./ha, fresh weight inhibition rate 21 days after treatment
Source text: as §1
The test soil was quantitatively filled to 3/4 of the pot, and then watered from the bottom of the pot to completely wet the soil to saturation. The test weed seeds were accelerated to just germinate, and then evenly and quantitatively sowed on the soil surface, covered with 0.5-1 cm soil according to the sizes of the seeds, and ready for use 72 hours after sowing.
as §4
as §6, with “well-sowed” for “well-cultured”, “water.” for “water. The test materials were transferred to and routinely cultured in a greenhouse after the treatment.”
as §7, §8, §9

Beckmannia syzigachne = experiment: Pre-emergence test experiment; type: in vivo; details: activity level, sprayed after sowing, 4 weeks
Source text: (§12) Monocotyledonous and dicotyledonous weed seeds as well as major crop seeds (wheat, corn, rice, soybean, peanut, cotton, oilseed rape, millet, and sorghum) were placed in plastic pots filled with soil, and then covered with 0.5-2 cm of soil. The test compounds of the present invention were individually dissolved with acetone, then added with Tween 80, diluted with a certain amount of water to obtain a solution of a certain concentration, and sprayed immediately after sowing. After drug application, cultivation was conducted for 4 weeks in a greenhouse and then the experimental results were observed.

Setaria viridis = experiment: Pre-emergence test experiment; type: in vivo; details: activity level, sprayed after sowing, 4 weeks
Source text: as §12

Corn = details: in vivo, 4 weeks
Source text: as §12

Peanut = details: in vivo, 4 weeks
Source text: as §12

Cotton = details: in vivo, 4 weeks
Source text: as §12

Soybean = details: in vivo, 4 weeks
Source text: as §12

Lolium perenne = experiment: Pre-emergence test experiment; type: in vivo; details: activity level (fresh weight growth control rate), sprayed after sowing, 4 weeks
Source text: as §12

Direct sowing rice = details: in vivo, 7 days
Procedure: To simulate a field of direct sowing rice, a 5-cm water layer was added to the container first, fully mixed with mud to form slurry, and then rice seeds were scattered in. After the slurry became clear, the water layer was removed. The soil was kept moist and applied with drug solution evenly by spraying. The soil was rehydrated to 3-cm deep 3-4 days after drug application.
The doses of the compounds used in the above-mentioned experiments were 3.75, 7.5, 15, 30, 60, and 120 g a.i./ha. […] The effects were evaluated according to the above-mentioned activity level criteria.

Wheat = details: in vivo
Source text: as §12

Rice 30 g a.i./ha (Rice): 0
Corn 60 g a.i./ha (Corn): 0
Peanut 60 g a.i./ha (Peanut): 0
Cotton 60 g a.i./ha (Cotton): 0
Soybean 60 g a.i./ha (Soybean): 0
Compound: CC(C)C12CCC(C)(O1)C(OCc1c(F)cccc1Br)C2 (racemic) [Compound 1]
Control effect of A applied alone in a corresponding dose (%) (Soliva anthemifolia): 22.8%
Control effect of A applied alone in a corresponding dose (%) (Echinochloa glabrescens [1]): 48.7%
Control effect of A applied alone in a corresponding dose (%) (Cyperus glomeratus [2]): 51.5%
Control effect of A applied alone in a corresponding dose (%) ([3]; A alone 30 g a.i./ha): 38.4%
Control effect of A applied alone in a corresponding dose (%) ([3]; A alone 60 g a.i./ha): 52.7%
Echinochloa crusgalli 7.5 g a.i./ha (Echinochloa crusgalli): 9
Echinochloa phyllopogon 7.5 g a.i./ha (Echinochloa phyllopogon): 9
Control effect of A applied alone in a corresponding dose (%) (Echinochloa glabrescens [4]): 58.3%
Control effect of A applied alone in a corresponding dose (%) (Oxybasis glauca): 19.8%
Control effect of A applied alone in a corresponding dose (%) (Cyperus glomeratus [5]): 56.1%
Control effect of A applied alone in a corresponding dose (%) (Arivela viscosa): 18.5%
Control effect of A applied alone in a corresponding dose (%) (Digitaria ischaemum): 56.4%
Beckmannia syzigachne 60 g a.i./ha (Beckmannia syzigachne): 9
Setaria viridis 30 g a.i./ha (Setaria viridis): 9

Compound: CC(C)C12CCC(C)(O1)C(OCc1ccccc1Br)C2 (centres unmarked) [Control compound A]
Lolium perenne 30 g a.i./ha (Lolium perenne): 1 (Level 1: growth control rate is less than 10%)

Direct sowing rice 60 g a.i./ha (Direct sowing rice): 9
Rice 60 g a.i./ha (Rice): 9
Compound: CC(C)C12CCC(C)(O1)C(OCc1c(F)cccc1Cl)C2 (centres unmarked) [Control compound C]
phytotoxicity to wheat (Wheat): unacceptable phytotoxicity

Source: patent US20260191194A1, “OXABICYCLOALKANE COMPOUNDS, PREPARATION METHOD THEREFOR, AND HERBICIDAL COMPOSITION AND USE THEREOF” (QINGDAO KINGAGROOT CHEMICAL COMPOUND CO., LTD., priority 2022, published 2026)
